These results are taken from ChEMBL document CHEMBL2396653, “Synthesis and antimycobacterial evaluation of N-substituted 5-chloropyrazine-2-carboxamides” (Bioorg Med Chem Lett, 2013).

A word on the MIC: it is the smallest concentration in the dilution series that meets the test's criterion for growth inhibition.

The subject of series [1] is Trichosporon asahii. Put plainly: Antifungal activity against Trichosporon asahii 1188 assessed as growth inhibition after 24 to 48 hrs by microbroth dilution method. It is filed as functional, organism-based. On the technique in general: Broth dilution looks for growth in wells or tubes with falling amounts of substance.
The subject of series [2] is Mycobacterium avium. Put plainly: Antimycobacterial activity against Mycobacterium avium CNCTC My 152/73 assessed as growth inhibition after 14 days by microdilution method. Type of series: functional. Particulars: CNCTC My 152/73, 336 h.
Series [3] concerns Pichia kudriavzevii. Description: Antifungal activity against Candida krusei E28 assessed as growth inhibition after 24 to 48 hrs by microbroth dilution method. Type of series: functional, organism-based.
Series [4] has as its system Lichtheimia corymbifera. Description: Antifungal activity against Absidia corymbifera 272 assessed as growth inhibition after 24 to 48 hrs by microbroth dilution method. It is filed as functional, organism-based.
For series [5], the system named is Mycobacterium kansasii. Put plainly: Antimycobacterial activity against Mycobacterium kansasii CNCTC My 235/80 assessed as growth inhibition after 14 days by microdilution method. It is filed as functional. Conditions: CNCTC My 235/80, 336 h.
For series [6], the system named is Staphylococcus epidermidis. Put plainly: Antibacterial activity against Staphylococcus epidermidis H 6966/08 clinical isolate assessed as growth inhibition after 24 to 48 hrs by microbroth dilution method. It is filed as functional, organism-based.
Series [7] concerns Staphylococcus aureus. Put plainly: Antibacterial activity against methicillin-resistant Staphylococcus aureus H 5996/08 clinical isolate assessed as growth inhibition after 24 to 48 hrs by microbroth dilution method. Type of series: functional, organism-based.
Series [8] in a line: Stability of the compound at pH 7. It is filed as physicochemical. Conditions: buffer.
For series [9], the system named is Aspergillus fumigatus. Description: Antifungal activity against Aspergillus fumigatus 231 assessed as growth inhibition after 24 to 48 hrs by microbroth dilution method. Type of series: functional, organism-based.
The test system of series [10] is Nakaseomyces glabratus. Description: Antifungal activity against Candida glabrata 20/I assessed as growth inhibition after 24 to 48 hrs by microbroth dilution method. Type of series: functional, organism-based.
Series [11] concerns Staphylococcus aureus. Put plainly: Antibacterial activity against Staphylococcus aureus CCM 4516/08 assessed as growth inhibition after 24 to 48 hrs by microbroth dilution method. Type of series: functional, organism-based.
Series [12] deals with Enterococcus. Description: Antibacterial activity against Enterococcus sp. J 14365/08 clinical isolate assessed as growth inhibition after 24 to 48 hrs by microbroth dilution method. Type of series: functional, organism-based.
Series [13] deals with Mycobacterium tuberculosis. Put plainly: Antimycobacterial activity against Mycobacterium tuberculosis H37Rv assessed as growth inhibition after 14 days by microdilution method. Type of series: functional. Conditions: 336 h.
Series [14] relates to Klebsiella pneumoniae. Description: Antibacterial activity against ESBL-positive Klebsiella pneumoniae J 14368/08 clinical isolate assessed as growth inhibition after 24 to 48 hrs by microbroth dilution method. Type of series: functional, organism-based.
Series [15] relates to Candida albicans. Description: Antifungal activity against Candida albicans ATCC 44859 assessed as growth inhibition after 24 to 48 hrs by microbroth dilution method. It is filed as functional, organism-based.
For series [16], the system named is Candida tropicalis. Description: Antifungal activity against Candida tropicalis 156 assessed as growth inhibition after 24 to 48 hrs by microbroth dilution method. Type of series: functional, organism-based.
The nature of series [17]: Lipophilicity, log K of the compound by HPLC analysis. Type of series: physicochemical.
The subject of series [18] is Mycobacterium avium. Description: Antimycobacterial activity against Mycobacterium avium CNCTC My 80/72 assessed as growth inhibition after 14 days by microdilution method. Type of series: functional. Particulars: CNCTC My 80/72, 336 h.
In series [19] the test system is Pseudomonas aeruginosa. Put plainly: Antibacterial activity against Pseudomonas aeruginosa CCM 1961 assessed as growth inhibition after 24 to 48 hrs by microbroth dilution method. Type of series: functional, organism-based.
Series [20] concerns Trichophyton mentagrophytes. Description: Antifungal activity against Trichophyton mentagrophytes 445 assessed as growth inhibition after 72 to 120 hrs by microbroth dilution method. It is filed as functional, organism-based.
The test system of series [21] is Escherichia coli. Put plainly: Antibacterial activity against Escherichia coli CCM 4517 assessed as growth inhibition after 24 to 48 hrs by microbroth dilution method. Type of series: functional, organism-based.
Series [22] has as its system Klebsiella pneumoniae. Put plainly: Antibacterial activity against Klebsiella pneumoniae D 11750/08 clinical isolate assessed as growth inhibition after 24 to 48 hrs by microbroth dilution method. Type of series: functional, organism-based.

The structures appear in SMILES notation. In brackets after ≈: the same amount, converted by molar mass. Activity calls are given as the source filed them. A value given as a limit tells only on which side of the number the result lay.

For `O=C(NCc1ccccc1F)c1cnc(Cl)cn1`, the “growth inhibition (GI)” value in series [1], in series [3], in [4], in series [6], in series [7] and in [9] was “inactive” each time. The “growth inhibition (GI)” value in series [10], in series [11], in series [12], in [14], in series [15] and in series [16] was “inactive” each time. Also, the “growth inhibition (GI)” value in series [19], in [20], in [21] and in series [22] was “inactive” throughout. Moreover, the MIC is > 100 µg/mL in series [2], 50 µg/mL (≈ 188 µM) in series [5], 25 µg/mL (≈ 94.1 µM) in series [13] and > 100 µg/mL in series [18]. In addition, the Stability result in [8] is reported as “Stable”. Besides, in series [17], the “log K” value is 0.3395.

As for `Cc1ccccc1CNC(=O)c1cnc(Cl)cn1`, the “growth inhibition (GI)” value in series [1], in [3], in [4], in series [6], in series [7] and in series [9] was “inactive” in each case. Further, the “growth inhibition (GI)” value in series [10], in series [11], in [12], in [14], in series [15] and in [16] was “inactive” each time. The “growth inhibition (GI)” value in [19], in [20], in series [21] and in series [22] was “inactive” in each case. For the same molecule, the MIC is > 100 µg/mL in [2], 25 µg/mL (≈ 95.5 µM) in series [5], 50 µg/mL (≈ 191 µM) in [13] and > 100 µg/mL in [18]. Besides, in series [8], the Stability result is on record as “Stable”. The “log K” value in series [17] came out at 0.3947.

For the molecule `O=C(NCc1ccccc1C(F)(F)F)c1cnc(Cl)cn1`, the “growth inhibition (GI)” value in series [1], in series [3], in series [4], in series [6], in series [7] and in [9] was “inactive” throughout. In addition, the “growth inhibition (GI)” value in series [10], in series [11], in series [12], in series [14], in series [15] and in [16] was “inactive” throughout. The “growth inhibition (GI)” value in series [19], in series [20], in series [21] and in [22] was “inactive” each time. The MIC was > 100 µg/mL in series [2], 100 µg/mL (≈ 317 µM) in [5], 25 µg/mL (≈ 79.2 µM) in series [13] and > 100 µg/mL in series [18]. The Stability result in [8] is on record as “Stable”. Besides, the “log K” value in series [17] is 0.4851.

Turning to `O=C(Nc1ccccc1F)c1cnc(Cl)cn1`, the “growth inhibition (GI)” value in series [1], in [3], in series [4], in [6], in series [7] and in series [9] was “inactive” each time. For the same molecule, the “growth inhibition (GI)” value in series [10], in series [11], in series [12], in [14], in series [15] and in series [16] was “inactive” in each case. The “growth inhibition (GI)” value in series [19], in series [20], in series [21] and in series [22] was “inactive” each time. In addition, the MIC in [2] is > 100 µg/mL; in series [5], 12.5 µg/mL (≈ 49.7 µM); in series [13], 6.25 µg/mL (≈ 24.8 µM); in series [18] it was > 100 µg/mL. In addition, in series [8], the Stability entry is on record as “Stable”. Further, the “log K” value in [17] stood at 0.4903.

In the case of `COc1ccc(CNC(=O)c2cnc(Cl)cn2)c(OC)c1`, the “growth inhibition (GI)” value in [1], in series [3], in [4], in series [6], in series [7] and in [9] was “inactive” each time. Moreover, the “growth inhibition (GI)” value in series [10], in [11], in series [12], in [14], in [15] and in series [16] was “inactive” each time. Also, the “growth inhibition (GI)” value in [19], in [20], in [21] and in series [22] was “inactive” each time. The MIC in series [2], in series [5], in series [13] and in [18] was > 100 µg/mL in each case. Also, in [8], the Stability result is “Stable”. Moreover, the “log K” value in series [17] is 0.2266.

With `O=C(NCc1ccccc1Cl)c1cnc(Cl)cn1`, the “growth inhibition (GI)” value in [1], in series [3], in series [4], in series [6], in [7] and in [9] was “inactive” in each case. The “growth inhibition (GI)” value in series [10], in [11], in series [12], in series [14], in series [15] and in series [16] was “inactive” each time. Besides, the “growth inhibition (GI)” value in series [19], in series [20], in series [21] and in [22] was “inactive” throughout. Moreover, the MIC was > 100 µg/mL in series [2], 6.25 µg/mL (≈ 22.2 µM) in [5], 25 µg/mL (≈ 88.6 µM) in [13] and > 100 µg/mL in series [18]. Besides, the Stability entry in series [8] is on record as “Stable”. For the same molecule, the “log K” value in series [17] came to 0.4168.
